Assay [1] has as its system iFA phenotype of mesenchymal-like cells on 13 kPa hydrogels. Put plainly: iFA-prevention phenotypic high-content drug screen (iFA model). Format: cell-based, human. To be noted: for Efficacy in secondary screen: assay repeated with compound sourced commercially or from additional library materials; for Dose response: 20 point dose course, picomolar to millimolar; for Prevention/rescue of the iFA phenotype: 3.75 μgm/ml IFNγ (FIG. 25C). As for the experimental part: Mesenchymal-like cells were cultured on 13 kPa functionalized polyacrylamide gels that were prepared as follows. 187.5 μl of 40% acrylamide, 60 μl of 2% bis-acrylamide and 8.55 μl of sodium bisulfate in a final volume of 990 μl of water was incubated for 20 min at room temperature to degas the mixture. To this mixture, 0.10% ammonium persulfate and 0.15% TEMED were added, mixed and 100 μl of the solution was added onto a 0.4% 3-(Trimethoxysily) propyl methacrylate pH 3.5 treated coverslip. A 2% dimethyl dichlorosilane in chloroform treated round glass coverslip was then inverted on the acrylamide solution and allowed to polymerize for 15 min between the two surfaces. The top coverslip was gently removed, and the bottom coverslips with the hydrogel were transferred to appropriate multi-well low adherent tissue culture plate containing coupling buffer (0.1 M sodium phosphate dibasic, 0.1 M sodium phosphate monobasic) pH 8. To functionalize the hydrogel, 1 part of 0.1 M p-benzoquinone in dioxane was added to the hydrogels containing 4 parts of coupling buffer and incubated at 37° C. for 30 min. The gel was then successively washed with 20% dioxane in water, water, 0.1 M sodium acetate buffer at pH 4.0 containing 1.0 M sodium chloride, 0.1 M sodium bicarbonate solution at pH 8.5 containing 1.0 M sodium chloride, and finally with coupling buffer at pH 7.5. The hydrogels were then coated with 0.1% gelatin for 2 hrs prior to seeding the cells. Cells were seeded at a density of 3000 cells/cm^2.
A phenotypic high-content drug screen was prepared to identify compounds capable of preventing the iFA phenotype in a 96-well format. An ImageXpress XL high-throughput imager with a 4× Plan objective (N/A 0.20) was used with image based focusing. Briefly, 100 μL media were plated in each well of 96 well plate using a Thermo Multidrop non-contact dispenser. Using a custom V&P pin tool mounted to a Beckman FX liquid handler, 1.5 μL compounds or DMSO were added. Mesenchymal-like cells were added as a suspension using the Multidrop at a density of 3.5×10^3 cells/well. The resulting compound concentration was 10 μM. Cells were imaged after 7 days of incubation at 37° C. and 5% CO2: A final of 0.5 μg/ml of Calcein AM and/or 10 μg/ml propidium iodide (viability dye) with 1 μg/ml Hoechst 33342 were added and imaged using the ImageXpress XL system. Data mining was performed using a custom module consisting of the following steps: The image background was removed using a top-hat filter with 25 μm round shape polisher. Next, cellular aggregates and individual spindle-shaped cells were identified. Aggregates of cells were defined by size with a cut-off of 60 to 200 micron and an intensity of at least 200 gray scales over background. Individual spindle-shaped cells were identified as smaller objects with cut-offs from 15 to 100 micron and a lower intensity of at least 70 gray scales over background.
Additional morphometric measurements were made by counting labeled cell nuclei and measuring total area covered with cells per well. The data resulting from the screen were batch exported through MetaXpress and uploaded into a Collaborative Drug Discovery (CDD) cloud based database (Ekins and Bunin, 2013, Methods in molecular biology 993, 139-154.). Hits were selected on a cut-off of more than 3 standard deviations from mean using data normalized to reference wells in each plate. IC50 values (the half maximal inhibitory concentration) from confirmation experiments were calculated from dose-response signal curves using the Prism software (GraphPad Software).
Signal-to-background (S/B) ratio, standard variation and variation coefficients were calculated as the signal of DMSO treated wells divided by the signal of the hit compound (AA5) treated wells. […]

For assay [2], the system named is iFA model. Description: Fibrotic marker, cytokine and repair modulator expression in the iFA model (qPCR, immunoblotting, luminex, immunofluorescence). Format: cell-based, human. To be noted: 3.75 μgm/ml IFNγ vs DMSO-treated controls. How it is done:
The Milliplex human cytokine/chemokine Panel IV, human TIMP Panel 2, and human TGFβ 1,2,3 magnetic bead kits (EMD Millipore) were used per manufacturer's instructions. Prior to plating, all samples tested for human TGFβ only were activated and neutralized with 1.0 N HCl and 1.0 N NaOH, respectively. Briefly, 25 μl of undiluted or treated cell culture supernatant samples were mixed with 25 μl of magnetic beads and allowed to incubate overnight at 4° C. while shaking. After washing the plates with wash buffer in a Biotek ELx405 washer, 25 μl of biotinylated detection antibody was added and incubated for 1 hour at room temperature while shaking. 25 μl of streptavidin-phycoerythrin conjugate was then added to the reaction mixture and incubated for another 30 minutes at room temperature while shaking. Following additional washes, beads were resuspended in sheath fluid, and fluorescence was quantified using a Luminex 200 instrument. Similarly, a custom magnetic Luminex assay kit of select analytes (R&D Systems) was used per manufacturer's instructions. Cell culture supernatants were prepared with a 2-fold dilution. 50 μl of diluted sample were added to 50 μl of provided micro-particle cocktail and incubated for 2 hours at room temperature while shaking. After washing with wash buffer, 50 μl of biotin antibody cocktail was added and incubated for 1 hour at room temperature while shaking. Following additional washes, 50 μl of diluted Streptavidin-PE was then added for incubation for 30 minutes at room temperature while shaking. The plate was then washed again and the micro-particles resuspended in 100 μl wash buffer. After an additional 2-minute incubation while shaking, the data was acquired using a Luminex 200 instrument.
In-vitro cultures of PF and cells in the iFA model were washed once with PBS and total RNA from the samples were extracted using the RNeasy Mini Kit (Qiagen) according to the manufacturer's instructions. For the lung slice cultures (LSC), tissues were snap-frozen after treatment and stored at −80° C. until RNA isolation. Lung slices were homogenized using a handheld homogenizer and passing the homogenate through a Qiashredder (Qiagen). Total RNA from the LSC and cells from the disease model were extracted using the RNeasy Mini Kit (Qiagen) according to the manufacturer's instructions. The RNA concentrations were measured on a NanoDrop ND-1000 spectrophotometer. Single-stranded cDNA was synthesized from 200 ng of total RNA using Superscript IV and random hexamer primers (Invitrogen) in a volume of 20 μl. cDNA was then used for qRT-PCR analysis. PCR reactions were performed using Taqman Gene Expression Assay mix (Applied Biosystems) according to the manufacturer's instructions.
qRT-PCR reactions were performed using the StepOnePlus (Applied Biosystems). Relative gene expression was calculated using the 2^−ΔΔCt method, with 18S Cat. #4331182 (Invitrogen) as housekeeping gene. For the RT^2qPCR arrays, cDNA from DMSO and AA5 treated iFA and was added to the RT^2 qPCR iTaq Universal SYBR green Master Mix (Biorad). 20 μl of the experimental cocktail was added to each well of the Fibrosis PCR (Qiagen). Real-Time PCR was performed on the StepOnePlus qPCR system (Applied Biosystems) using SYBR green detection according to the manufacturer's recommendations. All data from the PCR was collected and analyzed by SA Bioscience's PCR Array Data Analysis Web Portal.
Cells grown on coverslips were fixed in 4% paraformaldehyde (PFA) for 10 min at room temperature and washed three times with TBS buffer supplemented with 0.1% Tween 20 (TBST). Lung samples were fixed overnight in 4% PFA at room temperature, washed 3 times in PBS, dehydrated and then infiltrated and embedded with wax. Five-micron sections were collected on glass slides, deparaffinized and rehydrated. Heat-induced epitope retrieval was performed using 1 mM EDTA in a microwave. […]
On the technique in general: Real-time PCR tracks product formation cycle by cycle.

Where [3] appears, read: library compound plated with cells on day 1 on hydrogel, phenotype on day 7, 10 μM.

Counter-ions that a name gives are not always drawn.

Turning to `COc1ccc2c(c1)c(CC(=O)O)c(C)n2Cc1ccc(Cl)cc1` [1-(4-Chlorobenzyl)-5-methoxy-2-methylindole-3-acetic acid], in assay [1], the “Efficacy in secondary screen” value is recorded as “+”. In assay [1] (setting [3]), the “Efficacy in primary screen” value is recorded as “+++ (+++ = strong effect)”.
`CC(C)(C=O)Cc1cc(C(C)(C)C)c(O)c(C(C)(C)C)c1` [CGP-13501]: the “Efficacy in secondary screen” value in assay [1] is “+”. For the same molecule, the “Efficacy in primary screen” value in assay [1] (setting [3]) is on record as “+++ (+++ = strong effect)”.
As for `COC(=O)/C=C/c1cc(O)ccc1O`, in assay [1], the Dose response entry is reported as “++ (++ = moderate effect)” and the “Efficacy in secondary screen” value is “++ (++ = moderate effect)”. In assay [1] (setting [3]), the “Efficacy in primary screen” value is “+++ (+++ = strong effect)”.
As to `CCCNC(=O)NS(=O)(=O)c1ccc(Cl)cc1` [Chlorpropamide], the “Efficacy in secondary screen” value in assay [1] was “+”. Besides, the “Efficacy in primary screen” value in assay [1] (setting [3]) is listed as “+++ (+++ = strong effect)”.
For `CSCC[C@@H](N)C(=O)O` [D-methionine], in assay [1] (168 h, 10 µM), the “Efficacy in primary screen” value is “+++ (+++ = strong effect)”. For the same molecule, the “Efficacy in secondary screen” value in assay [1] is reported as “++ (++ = moderate effect)”.
Take `CN1CCC2(C)c3cc(O)ccc3N(C)C12.O=C(O)/C=C/C(=O)O` (single isomer, unassigned; (-)) [(−)Eseroline fumarate salt., (−)Eseroline fumarate salt]: the “Efficacy in secondary screen” value in assay [1] is reported as “++ (++ = moderate effect)”. In addition, the “Efficacy in primary screen” value in assay [1] (setting [3]) was “+++ (+++ = strong effect)”.
Regarding `S=C(Nc1ccccc1)Nc1nccs1` [1-Pheny1-3-(2-thiazolyl)-2-thiourea], in assay [1], the “Efficacy in secondary screen” value is “+”. The “Efficacy in primary screen” value in assay [1] (setting [3]) is “+++ (+++ = strong effect)”.
With `COC(=O)Nc1nc2ccc(Sc3ccccc3)cc2[nH]1` [Fenbendazole., Fenbendazole], the “Efficacy in secondary screen” value in assay [1] was “++ (++ = moderate effect)”. The “Efficacy in primary screen” value in assay [1] (setting [3]) was “+++ (+++ = strong effect)”.
On to `CC(NC(C)(C)C)C(=O)c1cccc(Cl)c1` (stereo not drawn) [Bupropion hydrochloride], for which the “Efficacy in secondary screen” value in assay [1] is recorded as “+”. For the same molecule, the “Efficacy in primary screen” value in assay [1] (setting [3]) is on record as “+++ (+++ = strong effect)”.
As to `CCCCC/C=C\C/C=C\C/C=C\C/C=C\CCCC(=O)NCc1ccc(O)c(OC)c1` [Arvanil], the “Efficacy in secondary screen” value in assay [1] was “+”. Besides, in assay [1] (setting [3]), the “Efficacy in primary screen” value is “+++ (+++ = strong effect)”.
Consider `Cc1cc(C2CCCCC2)n(O)c(=O)c1.NCCO` [Ciclopirox ethanolamine., Ciclopirox ethanolamine], for which the “Efficacy in secondary screen” value in assay [1] is given as “++ (++ = moderate effect)”. The “Efficacy in primary screen” value in assay [1] (setting [3]) is “+++ (+++ = strong effect)”.
With `NCCCC(=O)O` [γ-Aminobutyric acid], in assay [1], the “Efficacy in secondary screen” value is “+”. Moreover, the “Efficacy in primary screen” value in assay [1] (setting [3]) is “+++ (+++ = strong effect)”.
With `C[C@@H](N)[C@H]1CC[C@H](C(=O)Nc2ccncc2)CC1` [Y-27632 Rock Inhibitor], the “Efficacy in secondary screen” value in assay [1] is recorded as “++ (++ = moderate effect)”. The “Efficacy in primary screen” value in assay [1] (setting [3]) is listed as “+++ (+++ = strong effect)”.
`CN(C)c1ccc(C(=C2C=CC(=[N+](C)C)C=C2)c2ccc(N(C)C)cc2)cc1.[Cl-]`: the “Efficacy in secondary screen” value in assay [1] is “++ (++ = moderate effect)”. In addition, the “Efficacy in primary screen” value in assay [1] (setting [3]) was “+++ (+++ = strong effect)”.
For the molecule `CN1CCN(c2cccc(Nc3nc4c(-c5ccc(S(C)(=O)=O)cc5)cccn4n3)c2)CC1` [CEP-33779 JAK2 Inhibitor], the “Efficacy in secondary screen” value in assay [1] is listed as “++ (++ = moderate effect)”. Moreover, in assay [1] (setting [3]), the “Efficacy in primary screen” value is reported as “+++ (+++ = strong effect)”.
In the case of `O=P1(N(CCCl)CCCl)NCCCO1` (stereo not drawn) [Cyclophosphamide], in assay [1], the “Efficacy in secondary screen” value is on record as “+”. For the same molecule, the “Efficacy in primary screen” value in assay [1] (setting [3]) is recorded as “+++ (+++ = strong effect)”.
Consider `N#CC(C#N)=C(N)/C(C#N)=C/c1cc(O)c(O)c(O)c1` [Tyrphostin 51], for which the “Efficacy in secondary screen” value in assay [1] is “+”. The “Efficacy in primary screen” value in assay [1] (setting [3]) is reported as “+++ (+++ = strong effect)”.
Consider `NC(CP(=O)(O)O)C(=O)O` (racemic) [±)-2-Amino-3-phosphonopropionic acid], for which, in assay [1], the “Efficacy in secondary screen” value was “+”. Further, in assay [1] (setting [3]), the “Efficacy in primary screen” value is recorded as “+++ (+++ = strong effect)”.
In the case of `CC(C)(CO)Cc1cc(C(C)(C)C)c(O)c(C(C)(C)C)c1` [CGP-7930], the “Efficacy in secondary screen” value in assay [1] is “+”. For the same molecule, in assay [1] (setting [3]), the “Efficacy in primary screen” value was “+++ (+++ = strong effect)”.

B1: Recombinant Human IFN-gamma Protein: Recombinant Human IFN-gamma Protein; IFNs are known anti-fibrotic cytokines (protein, UniProt P01579 24-161, looked up)
Interferon gamma: QDPYVKEAENLKKYFNAGHSDVADNGTLFLGILKNWKEESDRKIMQSQIVSFYFKLFKNFKDDQSIQKSVETIKEDMNVKFFNSNKKKRDDFEKLTNYSVTDLNVQRKAIHELIQVMAELSPAAKTGKRKRSQMLFRG
With B1, the “α-SMA and Collagen I (IF)” value in assay [2] is reported as “reduced”. Also, in assay [1], the “Prevention/rescue of the iFA phenotype” value is recorded as “Partial prevention of the iFA phenotype”, the Dose response result was “+” and the “Efficacy in secondary screen” value is “++ (++ = moderate effect)”. Moreover, in assay [1] (listed as recombinant IFNγ), the “Prevention/rescue of the iFA phenotype” value is reported as “partially rescued the iFA phenotype”. Besides, the “Efficacy in primary screen” value in assay [1] (setting [3]) is reported as “+++ (+++ = strong effect)”.
